Read-outs that look alike come from different tables or passages of the source.
Tests used:
Haemonchus contortus = Haemonchus contortus larvacidal assay (larval development, LD99)
Description: a) Haemonchus Contortus Larvacidal Assay:
The effect of compounds on larval development was determined in the assay described by Gill et al., (1995, International Journal of Parasitology 25:463-470). Briefly, in this assay, nematode eggs were applied to the surface of an agar matrix containing the test compound and then allowed to develop through to the L3, infective stage (6 days). The wells for each dilution of every compound (from highest to lowest concentration) were inspected to determine the well number corresponding to the lowest concentration at which development was inhibited in 99% of the nematode larvae present (LD99). Because well numbers correspond to a two-fold serial dilution of each compound, a titre (dilution factor) is generated as 2n^−1, where n is the well number. By dividing the highest concentration tested by the titre an LD99 value can be obtained, representing the concentration required to inhibit development in 99% of the nematode larvae present. The compounds supplied as solid and viscous liquids were dissolved in DMSO. Twelve serial one-half dilutions in DMSO solution were prepared from the stock solution, each of which was then diluted ⅕ with water. Aliquots (10 μl) of each dilution were transferred to the bioassay plates to give a final concentration range of 0.024 to 50 μg/ml.

Ctenocephalides felis [1] = test system: Ctenocephalides felis
Procedure, shortened: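 Adult cat fleas (3–7 days post-emergence), 15 per flask in ≥4 replicates, exposed to a dried acetone residue at 1.26 μg/cm^2 on a Coatasil-treated glass flask base. Held at 25±1° C, 75±5% humidity; mortality (immobile or unable to right) scored at 8, 24 and/or 48 h.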

Ctenocephalides felis [2] = experiment: Ctenocephalides felis adulticide assay: C. felis dose response (LC50)
Rhipicephalus sanguineus [3] = experiment: Rapid screening protocol for topical application on brown dog ticks (% mortality)
Procedure, shortened: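 Mixed-sex unfed adult ticks each received 1 μL test sample in acetone on the abdomen at a single screening dose chosen above the reference LD90 (fipronil 10 μg/tick), with acetone-only controls; 4 replicates of 10 ticks. Held 24 h at 25±1 °C; ticks unresponsive to light touch over 1 min scored dead, pooled as % mortality.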

Rhipicephalus sanguineus [4] = experiment: Dose response protocol for topical application on brown dog ticks (LD50); details: 24 h mortality, probit analysis
Procedure, shortened: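 Adult mixed-sex unfed ticks, groups of ten in four replicates, received 1 μL of one of seven acetone serial dilutions topically on the abdomen at 25±1° C; acetone-only controls. Mortality (no response to touch or breath within 30 s) was scored at 24 h to give the LD50.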

SMILES | H. contortus LD99 (Haemonchus contortus) [ppm] | also measured
CCC(=NNc1cc(Cl)cc(Cl)c1)c1cc(Cl)ccc1NS(=O)(=O)C(F)(F)F [Compound 16] | 2.8 | –
CC(=NNc1ccc(Cl)c(Cl)c1)c1cc(Cl)ccc1NS(=O)(=O)C(F)(F)F [Compound 5] | 3.3 | –
CC(=NNc1ccc(C(F)(F)F)cc1)c1cc(Cl)ccc1NS(=O)(=O)C(F)(F)F [Compound 1, N-[2-[1-(4-trifluoro-methylphenyl)hydrazono]ethyl-4-chlorophenyl]-trifluoromethanesulfonamide] | 3.8 | –
CC(=NNc1ccc(Cl)cc1Cl)c1cc(Cl)ccc1NS(=O)(=O)C(F)(F)F [Compound 4] | 0.63 | –
CC(=NNC(=O)c1ccccc1)c1cc(Cl)ccc1NS(=O)(=O)C(F)(F)F [Compound 11] | >15 | –
CC(=NNc1cccc(Cl)c1Cl)c1cc(Cl)ccc1NS(=O)(=O)C(F)(F)F [Compound 3] | 1.5 | –
CCC(=NNc1cccc(Cl)c1Cl)c1cc(Cl)ccc1NS(=O)(=O)C(F)(F)F [Compound 13, N-[2-[1-(2,3-dichlorophenyl)hydrazono]propyl-4-chlorophenyl]-trifluoromethanesulfonamide] | 3 | –
CCC(=NNc1ccc(Br)cc1)c1cc(Cl)ccc1NS(=O)(=O)C(F)(F)F [Compound 15] | 3.8 | –
CC(=NNc1cc(Cl)cc(Cl)c1)c1cc(Cl)ccc1NS(=O)(=O)C(F)(F)F [Compound 6] | 3.5 | –
CCC(=NNc1cc(Cl)ccc1Cl)c1cc(Cl)ccc1NS(=O)(=O)C(F)(F)F [Compound 19] | 0.94 | –
CCC(=NNc1ccc(Cl)cc1Cl)c1cc(Cl)ccc1NS(=O)(=O)C(F)(F)F [Compound 18] | 0.47 | C. felis Mortality (%) 8 h (Ctenocephalides felis [1]; 8 h, data from laboratory 2): 5^B %
CCC(=NNc1ccc(C(F)(F)F)cc1)c1cc(Cl)ccc1NS(=O)(=O)C(F)(F)F [Compound 2] | 6 | –
CC(=NNc1ccc(Br)cc1)c1cc(Cl)ccc1NS(=O)(=O)C(F)(F)F [Compound 8] | 7.5 | C. felis Mortality (%) 8 h (Ctenocephalides felis [1]; 8 h, data from laboratory 2): 12^B %
Cn1ccc(-c2cc(Cl)ccc2NS(=O)(=O)C(F)(F)F)n1 | – | melting point: 196 to 197 °C
CC(=NNc1cc(Cl)ccc1Cl)c1cc(Cl)ccc1NS(=O)(=O)C(F)(F)F [Compound 7] | 0.94 | –
CCCN(N=C(C)c1cc(Cl)ccc1NS(=O)(=O)C(F)(F)F)c1ccccc1 [Compound 25] | – | C. felis Mortality (%) 8 h (Ctenocephalides felis [1]): 100%; C. felis Mortality (%) 24 h (Ctenocephalides felis [1]): 100%; C. felis LC50 (Ctenocephalides felis [2]): 1.8 ppm; R. sanguineus Mortality (%) 24 h (Rhipicephalus sanguineus [3]; data from laboratory 1): 75^A %; R. sanguineus LD50 (Rhipicephalus sanguineus [4]): 1.2 μg/tick
CCC(=NNc1ccc(Cl)c(Cl)c1)c1cc(Cl)ccc1NS(=O)(=O)C(F)(F)F [Compound 14] | 3.8 | –
CCC(=NNC(=O)c1ccc(Cl)cc1)c1cc(Cl)ccc1NS(=O)(=O)C(F)(F)F [Compound 60] | – | C. felis Mortality (%) 8 h (Ctenocephalides felis [1]): 60%; C. felis Mortality (%) 24 h (Ctenocephalides felis [1]): 100%; C. felis LC50 (Ctenocephalides felis [2]): 4.1 ppm; R. sanguineus Mortality (%) 24 h (Rhipicephalus sanguineus [3]; data from laboratory 2): 75%; R. sanguineus LD50 (Rhipicephalus sanguineus [4]): 7.1 μg/tick
COc1ccc(NN=C(C)c2cc(Cl)ccc2NS(=O)(=O)C(F)(F)F)cc1 [Compound 10] | >15 | –

From patent US20070238700A1, “N-PHENYL-1,1,1-TRIFLUOROMETHANESULFONAMIDE HYDRAZONE DERIVATIVE COMPOUNDS AND THEIR USAGE IN CONTROLLING PARASITES” (priority 2006, published 2007)
